Laboratory results as given in US11040984B2, “Quinazoline compound for EGFR inhibition” (MEDSHINE DISCOVERY INC., priority 2016, dated 2021).
Structures can show the parent of a compound that is named as a salt.

Experiments:
PC-9 (Δ19del) cells = test: Anti-PC-9 cell proliferation (Cell-Titer Glo, 72 hours); assay type: cell-based; conditions: Homo sapiens, PC-9 cells, read-out: Anti-PC-9 (Δ19del) cell proliferative activity IC50
Procedure: RPMI 1640 medium, FBS fetal bovine serum and trypsin-EDTA were purchased from Giboco. DPBS was purchased from Corning, penicillin/streptomycin solution from Hyclone, Cell-Titer Glo reagent from Promega (1 kit, Cat. No. G7571). PC-9 was built by WuXi itself. Plate reader: Envision (Perkin Elmer).
(§1) 45 μL Culture media was added to columns 1, 2, 24 of a 384-well plate, repectively. The cell suspension was separated by Multi-drop, 45 μL (1000 cells) per well, which was placed and cultured in an incubator overnight. A compound was added to the source plate according to the requirement of Echo liquid-separation. The compound in the source plate was added to the interplate and diluted to an intermediate concentration, then the compound in the source plate and the interplate was added to the cell plate, and the cells were further cultured in the incubator for 72 hours. After 72 hours, Cell-Titer Glo reagent and cells were taken out and equilibrated at room temperature for 30 minutes. 25 μL Cell-Titer Glo reagent was separated into the cells in 384-well plate by Multi-drop, shaken at medium speed for 3 minutes, centrifuged at 1000 rpm for 2 minutes, and kept for 10 minutes. Envision was used to read the plate (Luminescence).

EGFR [d746-750] = EGFR [d746-750] (Homo sapiens (Human), UniProt P00533, DEL746-750); test: Kinase assay (HTRF KinEASE TK), EGFR exon 19 deletion enzyme; assay type: biochemical
Excerpt: (§2) Detection of inhibitory effects of compounds on enzymatic activities of EGFR WT, EGFR [L858R] and EGFR [d746-750]
(§3) EGFR WT (Invitrogen, Cat. No PR7295B), EGFR [L858R] (Invitrogen, Cat. No PR7447A), EGFR [d746-750](Invitrogen, Cat. No PV6179), ATP (Sigma, Cat. No. A7699-1G), DMSO (Sigma, Cat. No. D2650), DTT (Sigma, Cat. No. 43815), 384-well plates compound dilution plates (Greiner, Cat. No. 781280), 384-well plates_test plates (Perkin Elmer, Cat. No. 6007299), HTRF KinEASE TK Kit (Cisbio, Cat. No. 62TKOPEB), MgCl2 (Sigma, Cat. No. M1028), Orthovanadate (Sigma, Cat. No. S6508), BSA (Sigma, Cat. No. A7030), HEPES (Life technology, Cat. No. 11344-041)
(§4) The final test concentrations of the test compounds ranged from 10 μM to 0.17 nM, with serial 3-fold dilutions and 11 gradient concentrations.
(§5) Buffer formulation: a buffer consisted of 50 mM HEPES (pH 7.5), 0.01% BSA, 5 mM MgCl2, 0.1 mM Orthovanadate. After the buffer was formulated, an enzyme and a substrate were mixed with pre-diluted compounds of varying concentrations, and placed at room temperature for 15 minutes. The reaction was initiated by adding ATP and incubated at room temperature for 60 minutes (wherein negative and positive controls were set up). The 10 μL reaction system consisted of a 2.5 μL compound, a 5 μL mixture of enzyme and substrate, and 2.5 μL ATP. After the reaction was complete, antibodies were added to test, the detection was performed with Evnvision after incubation at room temperature for 60 minutes, and data were collected. Data analysis and simulation were performed using XLfit5 software.

A431 cells = test: Anti-A431 cell proliferation; assay type: cell-based; conditions: Homo sapiens, A-431, read-out: Anti-A431 cell proliferative activity IC50
Procedure: as §1

EGFR WT = EGFR WT (Homo sapiens (Human), UniProt P00533); test: Kinase assay (HTRF KinEASE TK), wild-type EGFR enzyme; assay type: biochemical
Excerpt: as §2, §3, §4, §5

EGFR [L858R] = EGFR [L858R] (Homo sapiens (Human), UniProt P00533, L858R); test: Kinase assay (HTRF KinEASE TK), EGFR L858R enzyme; assay type: biochemical
Excerpt: as §2, §3, §4, §5

EGFR [d746-750], sequence (P00533 other isoform, or with tags, fused parts or gaps del 1-667/del 746-750 limits assumed): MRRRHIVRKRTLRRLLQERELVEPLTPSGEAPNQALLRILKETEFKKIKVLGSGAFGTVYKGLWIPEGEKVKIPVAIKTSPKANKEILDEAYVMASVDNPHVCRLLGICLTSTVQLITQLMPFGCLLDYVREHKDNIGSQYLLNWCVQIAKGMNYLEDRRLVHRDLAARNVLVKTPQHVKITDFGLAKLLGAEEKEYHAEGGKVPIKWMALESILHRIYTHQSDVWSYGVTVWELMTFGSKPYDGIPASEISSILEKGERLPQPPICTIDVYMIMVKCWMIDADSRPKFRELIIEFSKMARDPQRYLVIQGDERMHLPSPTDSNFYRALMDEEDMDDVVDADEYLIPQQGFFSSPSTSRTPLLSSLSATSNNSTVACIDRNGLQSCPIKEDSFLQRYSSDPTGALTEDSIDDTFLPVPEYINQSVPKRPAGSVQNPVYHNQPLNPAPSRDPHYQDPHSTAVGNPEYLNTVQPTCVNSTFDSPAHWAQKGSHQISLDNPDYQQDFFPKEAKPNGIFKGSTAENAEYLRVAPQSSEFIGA
EGFR [L858R], sequence (P00533 25-1210 L858R): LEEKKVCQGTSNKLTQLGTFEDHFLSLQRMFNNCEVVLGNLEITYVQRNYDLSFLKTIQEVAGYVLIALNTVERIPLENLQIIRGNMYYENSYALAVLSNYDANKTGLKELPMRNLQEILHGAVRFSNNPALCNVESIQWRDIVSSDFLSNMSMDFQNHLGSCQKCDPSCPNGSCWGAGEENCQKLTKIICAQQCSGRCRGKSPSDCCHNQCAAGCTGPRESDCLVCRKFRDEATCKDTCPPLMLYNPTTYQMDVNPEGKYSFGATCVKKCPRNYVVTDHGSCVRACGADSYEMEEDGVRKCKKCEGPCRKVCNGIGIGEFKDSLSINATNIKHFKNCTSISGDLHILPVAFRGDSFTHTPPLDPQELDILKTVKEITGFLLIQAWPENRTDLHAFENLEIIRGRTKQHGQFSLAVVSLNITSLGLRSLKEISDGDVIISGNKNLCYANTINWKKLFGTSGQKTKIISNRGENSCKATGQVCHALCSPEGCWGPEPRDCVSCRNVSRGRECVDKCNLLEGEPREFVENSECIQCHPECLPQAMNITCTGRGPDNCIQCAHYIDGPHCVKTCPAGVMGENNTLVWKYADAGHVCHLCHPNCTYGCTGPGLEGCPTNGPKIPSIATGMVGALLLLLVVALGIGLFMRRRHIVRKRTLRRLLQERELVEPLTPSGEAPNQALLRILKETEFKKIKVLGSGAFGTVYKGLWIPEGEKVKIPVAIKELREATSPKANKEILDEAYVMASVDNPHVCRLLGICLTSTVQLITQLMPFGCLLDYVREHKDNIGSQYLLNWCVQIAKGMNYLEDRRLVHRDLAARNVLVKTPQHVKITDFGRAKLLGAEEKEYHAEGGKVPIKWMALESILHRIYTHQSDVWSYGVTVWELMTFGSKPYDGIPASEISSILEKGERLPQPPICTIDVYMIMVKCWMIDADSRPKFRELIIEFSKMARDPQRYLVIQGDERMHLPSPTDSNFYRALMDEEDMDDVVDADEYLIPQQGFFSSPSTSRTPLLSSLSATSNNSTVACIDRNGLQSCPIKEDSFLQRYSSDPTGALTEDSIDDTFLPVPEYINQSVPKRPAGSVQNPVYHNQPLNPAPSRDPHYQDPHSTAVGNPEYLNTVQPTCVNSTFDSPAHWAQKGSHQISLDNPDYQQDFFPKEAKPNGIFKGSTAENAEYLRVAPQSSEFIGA
EGFR WT, sequence (P00533 25-1210): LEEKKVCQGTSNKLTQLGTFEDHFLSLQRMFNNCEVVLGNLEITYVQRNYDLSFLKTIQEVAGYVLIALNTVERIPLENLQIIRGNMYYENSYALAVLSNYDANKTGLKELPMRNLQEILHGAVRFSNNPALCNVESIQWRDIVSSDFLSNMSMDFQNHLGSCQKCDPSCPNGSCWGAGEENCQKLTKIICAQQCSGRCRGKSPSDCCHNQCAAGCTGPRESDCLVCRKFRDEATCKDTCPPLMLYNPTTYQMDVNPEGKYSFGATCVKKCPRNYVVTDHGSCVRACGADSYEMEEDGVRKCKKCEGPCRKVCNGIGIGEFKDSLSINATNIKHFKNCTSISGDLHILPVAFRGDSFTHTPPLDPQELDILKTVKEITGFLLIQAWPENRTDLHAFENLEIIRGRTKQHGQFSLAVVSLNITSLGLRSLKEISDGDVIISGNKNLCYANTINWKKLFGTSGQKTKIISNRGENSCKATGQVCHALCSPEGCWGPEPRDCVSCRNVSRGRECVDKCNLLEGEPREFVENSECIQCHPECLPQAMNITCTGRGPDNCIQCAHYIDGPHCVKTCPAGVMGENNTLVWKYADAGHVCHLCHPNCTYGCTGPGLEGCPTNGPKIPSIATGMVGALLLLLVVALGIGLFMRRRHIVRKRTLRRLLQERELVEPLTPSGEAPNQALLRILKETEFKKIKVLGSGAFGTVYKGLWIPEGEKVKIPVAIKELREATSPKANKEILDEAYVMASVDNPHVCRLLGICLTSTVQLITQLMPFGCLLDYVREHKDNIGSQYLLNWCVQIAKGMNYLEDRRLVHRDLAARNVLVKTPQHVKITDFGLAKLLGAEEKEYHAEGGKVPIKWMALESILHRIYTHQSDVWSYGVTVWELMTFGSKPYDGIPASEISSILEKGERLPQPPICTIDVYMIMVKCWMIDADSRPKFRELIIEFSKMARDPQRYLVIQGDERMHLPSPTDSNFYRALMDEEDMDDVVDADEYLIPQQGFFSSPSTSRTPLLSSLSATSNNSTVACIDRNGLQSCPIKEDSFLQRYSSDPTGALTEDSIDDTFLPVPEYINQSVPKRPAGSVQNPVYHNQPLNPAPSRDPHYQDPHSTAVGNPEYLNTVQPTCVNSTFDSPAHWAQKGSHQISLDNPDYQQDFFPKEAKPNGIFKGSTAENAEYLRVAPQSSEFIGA

Compound | IC50 (PC-9 (Δ19del) cells) [nM] | IC50 (EGFR [d746-750]) [nM] | IC50 (A431 cells) [nM] | IC50 (EGFR WT) [nM] | IC50 (EGFR [L858R]) [nM]
COc1cc2ncnc(Oc3cccc(Cl)c3)c2cc1N1CC2(CCN(C)CC2)OC1=O [Compound 16] | 540 | – | – | – | –
COc1cc2ncnc(Nc3cccc(Cl)c3F)c2cc1N1C[C@H](CN(C)C)OC1=O [Compound 18] | 12.5 | 0.05 | 59 | < 0.015 | –
COC[C@@H]1CN(c2cc3c(Nc4cccc(Cl)c4F)ncnc3cc2OC)C(=O)O1 [Compound 23] | 24 | 0.17 | – | 0.038 | –
CCN1CC2(C1)CN(c1cc3c(Nc4cccc(Cl)c4F)ncnc3cc1OC)C(=O)O2 [Compound 25] | 6.76 | 0.069 | 64 | 0.022 | –
COc1cc2ncnc(Nc3cccc(Cl)c3F)c2cc1N1CC2(CN(C(C)C)C2)OC1=O [Compound 26] | 7.2 | – | 98 | – | –
COc1cc2ncnc(Oc3cccc(Cl)c3)c2cc1N1CC2(CN(C)C2)OC1=O [Compound 27] | 84 | – | – | – | –
COc1cc2ncnc(Nc3cccc(Cl)c3F)c2cc1N1CC2(CN(CCF)C2)OC1=O [Compound 29] | 14.7 | – | – | – | –
CN1CC2(C1)CN(c1cc3c(Nc4cccc(Cl)c4F)ncnc3cc1OC(F)F)C(=O)O2 [Compound 45] | 8.86 | – | – | – | –
COc1cc2ncnc(Nc3ccc(F)c(Cl)c3F)c2cc1N1CC2(CN(C)C2)OC1=O [Compound 49] | 4.2 | – | – | – | –
COc1cc2ncnc(Nc3ccc(F)c(Cl)c3)c2cc1N1CC2(CCN(C)CC2)OC1=O [Formate of compound 2] | 165 | 16.5 | – | – | 48.1
COc1cc2ncnc(Nc3cccc(Cl)c3F)c2cc1N1CC2(CCN(C)CC2)OC1=O [Formate of compound 3] | 3 | 0.02 | 96 | – | 0.1
COc1cc2ncnc(Nc3cccc(Cl)c3OC)c2cc1N1CC2(CCN(C)CC2)OC1=O [Formate of compound 4] | 396 | 55.4 | – | – | 30.1
COc1cc2ncnc(Nc3cccc(Cl)c3F)c2cc1N1CC2(CCN(C(C)C)CC2)OC1=O [Formate of compound 5] | 2.73 | – | – | – | –
COc1cc2ncnc(Nc3ccc(Cl)c(Cl)c3F)c2cc1N1CC2(CCN(C)CC2)OC1=O [Formate of compound 6] | 4.9 | 0.07 | – | < 0.015 | –
COc1cc2ncnc(Nc3ccc(F)c(Cl)c3F)c2cc1N1CC2(CCN(C)CC2)CC1=O [Formate of compound 10] | 6.01 | – | 73 | – | –
CN1CCC2(CC1)CN(c1ccc3ncnc(Nc4cccc(Cl)c4F)c3c1)C(=O)O2 [Formate of compound 12] | 9.11 | 0.085 | 46 | 0.017 | –
COc1cc2ncnc(Nc3cccc(Cl)c3F)c2cc1N1CC2(CN(C)C2)OC1=O [Formate of compound 13] | 5.34 | 0.052 | – | 0.016 | –
COc1cc2ncnc(Nc3cccc(Cl)c3F)c2cc1N1CC2(COC2)OC1=O [Formate of compound 15] | 23 | – | – | – | –
COc1cc2ncnc(Nc3cccc(Cl)c3F)c2cc1N1C(=O)OC2CN(C)CCC21 (stereo not shown) [Formate of compound 17] | 29.4 | – | – | – | –
COc1cc2ncnc(-n3ccc4c(Cl)cccc43)c2cc1N1CC2(CCN(C)CC2)OC1=O [Formate of compound 19] | 1280 | – | – | – | –
COc1cc2ncnc(Nc3cccc(Cl)c3F)c2cc1N1CC2(CCN(C)CC2C)OC1=O (stereo not shown) [Formate of compound 20] | 2.17 | – | – | – | –
CCC1CN(C)CCC12CN(c1cc3c(Nc4cccc(Cl)c4F)ncnc3cc1OC)C(=O)O2 (stereo not shown) [Formate of compound 21] | 2.96 | – | – | – | –
Cc1cc2ncnc(Nc3cccc(Cl)c3F)c2cc1N1CC2(CCN(C)CC2)OC1=O [Formate of compound 22] | 41.4 | – | – | – | –
COc1cc2ncnc(Nc3c(F)ccc(Cl)c3F)c2cc1N1CC2(CCN(C)CC2)OC1=O [Formate of compound 24] | 7.53 | – | – | – | –
COc1cc2ncnc(-c3cn(C)c4ccccc34)c2cc1N1CC2(CN(C)C2)OC1=O [Formate of compound 28] | 250 | – | – | – | –
CC(C)N1CC2(CN(c3ccc4ncnc(Nc5cccc(Cl)c5F)c4c3)C(=O)O2)C1 [Formate of compound 33] | – | 0.29 | – | 0.114 | –
COc1cc2ncnc(Nc3ccc(Cl)cc3F)c2cc1N1CC2(CN(C)C2)OC1=O [Formate of compound 46] | 29.8 | – | – | – | –
COc1cc2ncnc(Nc3cccc(C)c3F)c2cc1N1CC2(CN(C)C2)OC1=O [Formate of compound 48] | 8.55 | – | – | – | –
CCCN1CC2(C1)CN(c1cc3c(Nc4cccc(Cl)c4F)ncnc3cc1OC)C(=O)O2 [Hydrochloride of compound 30] | 11.2 | 0.052 | 71 | 0.021 | –
COc1cc2ncnc(Nc3cccc(Cl)c3F)c2cc1N1CC2(CN(C3CC3)C2)OC1=O [Hydrochloride of compound 31] | 15.3 | – | – | – | –
